US12692244B2, “Griseofulvin 4 position etherified derivatives and their application” (Yan'an University, priority 2023, dated 2026)
Converted amounts (≈) assume the structure as drawn.

Key:
Test in all cases: Antifungal activity assay, mycelial growth inhibitory rate method
Assay type in all cases: cell-based
Botrytis cinerea Pers. = details: for inhibition of growth at 100 µg/mL: 100 μg/mL in PDA medium, 28° C., 48-72 h, read-out: Average values of antifungal rate (%) B.c.; for IC50: mycelial growth, PDA medium, 100-0.0488 μg/mL
Experimental: (§1) The antifungal activities were evaluated against seven plant phytopathogenic fungi, by the mycelial growth inhibitory rate method, according to a reported method (Yu-Bin Bai, Meng Zhang, Ding Li, Yu Zhao, Liang-Zhu Huang, and Jin-Ming Gao. J. Agric. Food. Chem., 2023, 71, 16, 6236-6248). The target phytopathogenic fungi are Cytospora sp., Alternaria solani Sorauer, Alternaria alternate, Botrytis sp., Botrytis cinerea Pers., Colletotrichum gloeosporioides and Botryosphaeria dothidea. 100 μg/mL PDA mediums were prepared at 50° C. The petri dishes were incubated and cultivated at 28° C. for 48-72 h. Each sample was measured in triplicate, each colony diameter of all triplicates was measured 4 times by cross bracketing method. Hymexazol (Hym) as the positive control and the result of inhibition rate was calculated according to the formula: [formula] • where C represents the diameter of fungal growth on untreated PDA, and T represents the diameter of fungal growth on treated PDA. […] PDA mediums with different compound concentrations (100, 50, 25, 12.5, 6.25, 3.125, 1.5625, 0.78125, 0.3906, 0.1953, 0.0977, 0.0488 μg/mL) was prepared and their half inhibitory concentration (IC50) values were accurately tested. All half inhibitory concentration results are shown in Table 2 and Hymexazol (Hym) as the positive control.

Alternaria alternate = details: for inhibition of growth at 100 µg/mL: 100 μg/mL in PDA medium, 28° C., 48-72 h; for IC50: mycelial growth, PDA medium, 100-0.0488 μg/mL
Experimental: as §1

Botryosphaeria dothidea = details: for inhibition of growth at 100 µg/mL: 100 μg/mL in PDA medium, 28° C., 48-72 h, read-out: Average values of antifungal rate (%) B.d.; for IC50: mycelial growth, PDA medium, 100-0.0488 μg/mL
Experimental: as §1

[1] = tested on: Colletotrichum gloeosporioides; details: for inhibition of growth at 100 µg/mL: 100 μg/mL in PDA medium, 28° C., 48-72 h, read-out: Average values of antifungal rate (%) C.g.; for IC50: mycelial growth, PDA medium, 100-0.0488 μg/mL
Experimental: as §1

Cytospora sp. = details: for inhibition of growth at 100 µg/mL: 100 μg/mL in PDA medium, 28° C., 48-72 h, read-out: Average values of antifungal rate (%) C.s.; for IC50: mycelial growth, PDA medium, 100-0.0488 μg/mL
Experimental: as §1

[2] = tested on: Alternaria solani Sorauer; details: for inhibition of growth at 100 µg/mL: 100 μg/mL in PDA medium, 28° C., 48-72 h, read-out: Average values of antifungal rate (%) A.s.; for IC50: mycelial growth, PDA medium, 100-0.0488 μg/mL
Experimental: as §1

Botrytis sp. = details: for inhibition of growth at 100 µg/mL: 100 μg/mL in PDA medium, 28° C., 48-72 h, read-out: Average values of antifungal rate (%) B.s.; for IC50: mycelial growth, PDA medium, 100-0.0488 μg/mL
Experimental: as §1

SMILES | inhibition of growth at 100 µg/mL (Botrytis cinerea Pers.) [%] | IC50 (Botrytis cinerea Pers.) [µg/mL] | inhibition of growth at 100 µg/mL (Alternaria alternate) [%] | IC50 (Alternaria alternate) [µg/mL] | inhibition of growth at 100 µg/mL (Botryosphaeria dothidea) [%] | IC50 (Botryosphaeria dothidea) [µg/mL] | inhibition of growth at 100 µg/mL [1] [%] | IC50 [1] [µg/mL] | inhibition of growth at 100 µg/mL (Cytospora sp.) [%] | IC50 (Cytospora sp.) [µg/mL] | inhibition of growth at 100 µg/mL [2] [%] | IC50 [2] [µg/mL] | inhibition of growth at 100 µg/mL (Botrytis sp.) [%] | IC50 (Botrytis sp.) [µg/mL]
COC1=CC(=O)C[C@@H](C)[C@]12Oc1c(Cl)c(OC)cc(OCC3CC3)c1C2=O [Compound 04, 4 Position Cyclopropylmethyl Griseofulvin Derivative] | 50.7 | > 100 | 41.4 | > 25 | 26.2 | > 100 | 48 | > 100 | 65.5 | > 50 | 70.5 | 17.85 ± 0.04 (≈ 45.4 µM) | 69.8 | > 100
C=CCOc1cc(OC)c(Cl)c2c1C(=O)[C@@]1(O2)C(OC)=CC(=O)C[C@H]1C [Compound 02, 4 Position Allyl Griseofulvin Derivative] | 56.9 | > 50 | 49.1 | > 100 | 51.7 | > 50 | 70.1 | 4.05 ± 0.46 (≈ 10.7 µM) | 52.7 | > 50 | 77 | 14.9 ± 5.66 (≈ 39.3 µM) | 85.2 | 3.93 ± 0.8 (≈ 10.4 µM)
COC1=CC(=O)C[C@@H](C)[C@]12Oc1c(Cl)c(OC)cc(OCc3ccsc3)c1C2=O [Compound 07, 4 Position 3-Methylthiophene Griseofulvin Derivative] | 59.7 | > 25 | 43.1 | > 100 | 42.3 | > 50 | 72.4 | 3.82 ± 0.09 (≈ 8.78 µM) | 54.7 | > 50 | 62.3 | > 50 | 73.8 | 17.6 ± 0.27 (≈ 40.4 µM)
COC1=CC(=O)C[C@@H](C)[C@]12Oc1c(Cl)c(OC)cc(OCc3ccccc3F)c1C2=O [Compound 06, 4 Position 2-Fluorobenzyl Griseofulvin Derivative] | 55.6 | > 50 | 3.45 | > 100 | 18.1 | > 100 | 75.6 | 1.92 ± 0.19 (≈ 4.3 µM) | 6.08 | > 100 | 13.1 | > 100 | 69.8 | > 25
COC1=CC(=O)C[C@@H](C)[C@]12Oc1c(Cl)c(OC)cc(OCc3ccc(C(C)=O)cc3)c1C2=O [Compound 08, 4 Position 1-(4-(Methyl)Phenyl)-Ethanone Griseofulvin Derivative] | 43.1 | > 100 | 2.59 | > 100 | 4.7 | > 100 | 26 | > 100 | 7.43 | > 100 | 0 | > 100 | 47.6 | > 100
